These results are taken from patent publication US9879036B2, “Mitochondrial aldehyde dehydrogenase-2 binding compounds and methods of use thereof” (Aviv Therapeutics, Inc., priority 2014, dated 2018).

Entries after “also recorded” stand apart in the source; their conditions may differ. Bounds are passed on as bounds.

In assay [1] the test system is FANCA deficiency lymphocyte cell line (FANCA B-lymphocyte, GM13022). The experiment in a line: Proliferation of FANCA deficient lymphocytes under 4 HNE challenge (alamarBlue). It counts as cell-based. The protocol: FANCA deficiency lymphocyte cell line (Fanconi Anemia, Complementation Group A, FANCA B-lymphocyte, GM13022) was purchased from Coriell Cell Repositories (403 Haddon Ave, Camden, N.J. 08103).
Standard cell culture conditions were used in this experiment. The culture medium (CM) consisted of culture medium RPMI1640, 15% heat-inactivated FBS, 2 mM L-glutamine, 1% Pen/Strep. Cells were suspended in 10-20 ml CM in T25 tissue culture flask in an upright position and incubated in a 37° C., 5% CO2 incubator. Cells were counted daily and diluted with fresh CM to 3×10^5 cells/ml. Cells thawed and maintained in culture for 3-12 days were used in these studies.
Cell densities of FANCA lymphocytes were determined and cells were diluted in RPMI1640 medium containing 15% FBS, 2 mM L-glutamine, 1% Pen/Strep to desired cell density. 4000 cells in 50-75 μl were plated onto each well in total 48 wells in columns 3-10 and rows B-G. This plating arrangement provided 6-replicates per column for each experimental condition. Plate was then centrifuged at 500 rpm for 2 min to ensure better distribution of cells across the well. For background medium controls, equal volume (50-75 μl) of dilution medium were added to wells B2, C2, D2.
For minimizing cells/medium drying in sample wells, 150 μl of 1×DPBS was added to each well of the 45 wells surrounding the sample and control wells. Plate was then incubated in a 37° C. 5% CO2 incubator for at least 4 hours before addition of new reagent.
Compounds were diluted from 20 mM stocks in DMSO with RPMI1640 medium containing 15% FBS. RPMI1640 medium containing 15% FBS and corresponding volume of DMSO was used as controls.
4 HNE (64 mM in 100% ethanol) was diluted to desired concentrations with RPMI1640 base medium.
AlamarBlue was added to each well to final 9.1 or 10% of the total volume in each well. Plate was further incubated in the 37° C. 5% CO2 incubator. The alamarBlue assay is designed to measure quantitatively the proliferation of human and animal cell lines in culture versus incubation time period.
Plate was removed from the CO2 incubator at a pre-designated time and placed in the microplate reader. The fluorescence level in each well was monitored at Ex 554 nm and Em 590 nm. Afterwards the numeric numbers/units were used for data analyses.
Fluorescence units in all wells were acquired by the microplate reader at each time point. Data were then exported to scientist's computer equipped with SoftMax ProS software. The average of Background units (Blk, 3×) and the average of each sample set (6 replicates) were determined. For data collected at each time point (cell culture incubation period), the average of Blk units were subtracted from the average of each set of the Sample units. These “net fluorescence unit” data were then presented in a plot consisted of different culture incubation time periods (the x-axis) versus the corresponding net fluorescence units (y-axis).
The “net fluorescence units” of each sample set were also compared to those of the “control” at each time point. “Control fluorescence units” were considered to be 100% at all the time points. Each set of “net fluorescence units” were divided by the “Control fluorescent units” and multiplied by 100 to obtain corresponding percentages. These “relative percentage” data were then presented in a plot consisted of time points (the x-axis) versus the corresponding relative percentages to control of 100 (y-axis).
The inhibitory effect of 4 HNE on the proliferation of FANCA lymphocytes was examined. 4000 cells in 75 μl of RPMI1640 medium containing 15% FBS were plated onto each sample well in a 96-well poly D-lysine coated black/clear cell culture plate and the plate was incubated in a 37° C. 5% CO2 incubator for 7 hours.
Stock of 4 HNE at 64 mM was diluted with RPMI1640 medium to 10 μM, 20 μM, 30 μM, 40 μM, 60 μM, 80 μM, and 120 μM. […]
On the technique in general: Alamar Blue is a resazurin reagent that responds to reducing activity.

The next assay concerns the target T1, ALDH2 (Homo sapiens, UniProt P05091).
T1 construct: His-tag (N); made in house; host or cells: E. coli BL21
T1 sequence (P05091 18-517): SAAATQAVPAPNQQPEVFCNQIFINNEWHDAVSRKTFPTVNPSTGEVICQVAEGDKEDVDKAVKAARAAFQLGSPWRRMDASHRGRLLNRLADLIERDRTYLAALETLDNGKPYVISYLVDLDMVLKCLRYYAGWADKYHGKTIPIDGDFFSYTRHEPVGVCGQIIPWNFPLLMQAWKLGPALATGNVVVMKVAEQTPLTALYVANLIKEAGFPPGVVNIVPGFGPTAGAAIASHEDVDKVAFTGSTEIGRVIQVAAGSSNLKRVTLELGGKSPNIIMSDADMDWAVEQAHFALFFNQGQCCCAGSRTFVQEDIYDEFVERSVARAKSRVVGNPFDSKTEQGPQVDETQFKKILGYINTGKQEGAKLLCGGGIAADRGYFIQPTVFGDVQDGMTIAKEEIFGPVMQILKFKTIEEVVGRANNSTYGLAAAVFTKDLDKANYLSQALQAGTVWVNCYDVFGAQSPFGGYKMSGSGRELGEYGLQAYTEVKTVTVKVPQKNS
The experiment in a line: ALDH2 activity with 20 μM of the compound (Table 3). It counts as biochemical. To be noted: 20 μM compound. An outline of the steps: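 Compound was tested at 20 μM. ALDH2 oxidation of acetaldehyde with NAD+ cofactor was followed spectrophotometrically as NADH accumulation at 340 nm. Activity is expressed relative to the enzyme's baseline activity, taken as 100%.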

Assay [2] deals with carrageenan inflammatory pain model in male C57BL/6 mice. Nature of the assay: Carrageenan inflammatory pain model, Von Frey paw withdrawal threshold. The settings on record: for contralateral paw withdrawal threshold / ipsilateral paw withdrawal threshold compared to vehicle: 180 minutes after carrageenan; for carrageenan-induced mechanical hyperalgesia: ipsilateral paw. It counts as in vivo. As for the experimental part:
Mice are acclimated to the colony room and maintained on a 12 hour/12 hour light/dark cycle. To induce plantar sensitivity to tactile stimuli, a single injection of carrageenan is administered to the plantar hindpaw of the mice and withdrawal from a mechanical stimulus is measured by applying Von Frey filaments of ascending bending force to the plantar surface of the hind paws.
A compound of formula (I) is dissolved and administered subcutaneous (sc) or orally (po) prior to carrageenan administration and after carrageenan injections. Data is analyzed by analysis of variance (ANOVA) followed by post-hoc comparisons with Fisher Tests when appropriate.
The analgesic effects of AC151 and Alda-1 were evaluated using the carrageenan inflammatory pain model in male C57BL/6 mice. The mice were administered AC151, Alda-1 and vehicle (saline) as a control.
Male C57BL/6J mice from Jackson Laboratories (Bar Harbor, Me.) were used in this study. Mice were received at 6-7 weeks of age. Upon receipt, mice were assigned unique identification numbers (tail marked) and were group housed in OPTImice cages. All animals were acclimated to the colony room for at least 1 week prior to testing. During the period of acclimation, animals were examined on a regular basis, handled, and weighed to assure adequate health and suitability. Animals were maintained on a 12 hour/12 hour light/dark cycle. The room temperature was maintained between 20° C. and 23° C. with a relative humidity maintained between 30% and 70%. Chow and water were provided ad libitum for the duration of the study. All testing was performed during the animal's light cycle phase.
To induce plantar sensitivity to tactile stimuli, a single injection of carrageenan was administered to the plantar hindpaw of the mice and three hours later withdrawal from a mechanical stimulus is measured by applying Von Frey filaments of ascending bending force (0.02 to 6 grams) to the plantar surface of the hind paws (ipsilateral and contralateral to injection). A positive response was defined as withdrawal from the Von Frey filament. Confirmation of threshold is tested by examining the filament above and below the withdrawal response. A significant decrease in withdrawal threshold is interpreted as mechanical hyperalgesia. Prior to drug or carrageenan treatment, baseline Von Frey measures were taken and used to balance animals across treatment groups.
Alda-1 (1, 2, and 5 mg/kg) was dissolved in 50% DMSO/50% PEG and administered subcutaneous (sc), 15 min prior to carrageenan administration and twice again 30 and 150 minutes after carrageenan injections at a dose volume of 5 ml/kg. AC151 (40 and 80 mg/kg) was dissolved in saline and administered orally (po), 30 min after carrageenan administration. For one group, AC151 (80 mg/kg) was administered 15 min prior to carrageenan injections. The dose volume for this compound was 10 ml/kg.
The initial injections of AC151 (80 mg/kg) and Alda-1 were made 15 min prior to carrageenan injections. Then, a single 3.5 μl injection of 3% carrageenan was administered to the right plantar hindpaw. Alda-1 was then administered twice, once 30 minutes after carrageenan and again 150 minutes post-carrageenan. In separate treatment groups AC151 (40 mg/kg and 80 mg/kg) as well as saline vehicle were administered 30 minutes after carrageenan injection. Von Frey measures were taken 180 minutes after carrageenan injection.
Data were analyzed by analysis of variance (ANOVA) followed by post-hoc comparisons with Fisher Tests when appropriate. An effect was considered significant if p<0.05. […].

For the compound `CCCCCC(O)/C=C/C=O` (stereo not drawn) [4 HNE, trans-4-Hydroxynonenal, reference compound], the “relative cell proliferation rate (control = 100%)” value in assay [1] (3.5 μM 4 HNE only, 25 hours to 48 hours after 4 HNE treatment) is on record as 83%. Also, in assay [1] (4 HNE 2.5 to 30 μM, no ALDH2 activator), the “level of FANCA cell proliferation” value was “reduction of the level of cell proliferation in a concentration-dependent manner”.
Regarding `COc1ccc(CNC(=O)c2cc(-c3n[nH]cc3CO)ccc2OCC2CC2)cc1F` [AC32], the “relative cell proliferation versus control without AC compounds” value in assay [1] (3.5 μM 4 HNE, 5 μM and 10 μM AC6, 10 μM AC32, 25 hours to 48 hours after 4 HNE treatment) is recorded as “higher levels of cell growth than “control”; also recorded: more efficient growth than control”. Also, in assay [1] (10 μM compound, pretreatment 2 hours before 6 μM 4 HNE challenge), the “FANCA-deficiency lymphocyte cell growth versus 4 HNE only or 2 μM ALDH2 activators” value is listed as “higher levels of cell growth”. Further, in assay [1] (pretreatment 2 hours before 3.5 μM 4 HNE challenge, 2 to 10 μM compound), the “FANCA-deficiency lymphocyte cell growth versus 4 HNE only” value is “higher levels of cell growth”. Moreover, the activity at 20 µM at ALDH2 was above 250%.
Regarding `COc1ccc(CNC(=O)c2cc(-c3ncccc3COC(=O)[C@H](N)C(C)C)ccc2OCC(C)C)cc1F` [AC151], in assay [2], the “contralateral paw withdrawal threshold” value is on record as “No treatment effects” and the carrageenan-induced mechanical hyperalgesia entry is “attenuated carrageenan-induced mechanical hyperalgesia”. In assay [2] (AC151 40 and 80 mg/kg po (all groups)), the “ipsilateral paw withdrawal threshold compared to vehicle” value is recorded as “significantly increased paw withdrawal threshold”.
Take `O=C(NCc1ccc2c(c1)OCO2)c1c(Cl)cccc1Cl` [Alda-1, N-(1,3-Benzodioxol-5-ylmethyl)-2,6-dichlorobenzamide, reference compound]: in assay [2], the “contralateral paw withdrawal threshold” value is reported as “No treatment effects” and the carrageenan-induced mechanical hyperalgesia entry was “attenuated carrageenan-induced mechanical hyperalgesia”. In addition, the “ipsilateral paw withdrawal threshold compared to vehicle” value in assay [2] (Alda-1 5 mg/kg sc, three doses) is recorded as “significantly increased paw withdrawal threshold”.
